Results published in patent US20250049802A1, “COMBINATION THERAPIES AND USES FOR TREATING CANCER” (Pfizer Inc., priority 2021, published 2025).

Columns and labels:
[1] = tested on: HCC1428 breast cancer model; test: In vivo efficacy (tumor growth inhibition) in the HR+/HER2− HCC1428 breast cancer model; parameters: species or system female NSG mice
Method: HCC1428 cells (ATCC, CRL-2327) were maintained in PRMI-1640 medium, plus 10% FBS until ready for implant. HCC1428 model was established by serial in vivo propagation. To establish the HCC1428 donor mice, tumor cells (5×10^6 cell/mouse with 50% Cultrex® Basement Membrane Matrix) were subcutaneously implanted in female NSG mice with estrogen supplementation (SC implanted, in 0.36 mg 90-day release, Innovative Research of America, cat #NE-121). Once reaching a range of 700 to 800 mm3, donor tumors were subsequently transplanted into secondary recipient mice for a study expansion. In this study, the HCC1428 model was established by implanting passage 4 tumor fragments into recipient mice. […] TGI was assessed on Day 36 post first dose.
Tumor volume and body weights were measured twice a week after dosing initiation. Tumor volume i was calculated using the [(Length×Width×Width)/2)] formula. TGI was calculated as 100*(1−ΔT/ΔC). […]

[2] = tested on: ST941 PDX breast cancer model; test: In vivo efficacy (tumor growth inhibition) in the HR+/HER2− ST941 PDX model; parameters: species or system female athymic nude mice
Method: The HR+/HER2− PDX studies were performed at START (San Antonio, TX) using female athymic nude mice (Foxn1nu/Foxn1nu, JAX Laboratories). Mice received 8.5 μg/mL β estradiol drinking water during study. The live donor mice were established by implanting cryopreserved tumor fragments (around 70 mg). Once ready, the donor tumor fragments were subsequently transplanted into secondary recipient mice for a study expansion.
Palbocidib was dosed twice daily (7 hr apart). PF-06821497 and vehicle was dosed once daily. Fulvestrant was administered twice in the first week, then weekly afterwards. TGI was assessed on Day 36 post first dose.
Tumor volume and body weights were measured twice a week after dosing initiation. Tumor volume i was calculated using the [(Length×Width×Width)/2)] formula. TGI was calculated as 100*(1−ΔT/ΔC). The ΔC (ΔT) was obtained by subtracting the mean tumor burden in the vehicle (treated) group on the first day of treatment (Day 0) from the mean tumor burden in vehicle (treated) group on the assessment day. All mice received treatment continuously until the day of efficacy assessment. Statistical analysis was performed in GraphPad Prism with an unpaired t test, followed by Mann-Whitney test.
The ST941 tumor bearing mice were randomized into 4 groups when the mean tumor volume reached around 177 mm3 and subsequently treated.

COc1cc(C)[nH]c(=O)c1CN1CCc2c(Cl)cc([C@H](OC)C3COC3)c(Cl)c2C1=O [PF-06821497, 5,8-dichloro-2-[(4-methoxy-6-methyl-2-oxo-1,2-dihydro-pyridin-3-yl)methyl]-7-[(R)-methoxy(oxetan-3-yl)methyl]-3,4-dihydroisoquinolin-1(2H)-one]
% TGI (D36) ([1]; Day 36 post first dose, TGI = 100*(1−ΔT/ΔC), doses and schedules per Table 1): 55%
antitumor efficacy vs vehicle ([1]; p<0.05 vs vehicle): significant antitumor efficacy
% TGI (D18) ([2]; TGI = 100*(1−ΔT/ΔC), doses and schedules per Table 2): 44.6%
antitumor efficacy vs vehicle ([2]; p<0.05 vs vehicle): significant antitumor efficacy
